# According to patent US8163728B2, “Pyrazoles” (Hoffmann-La Roche Inc., priority 2009, dated 2012):
# Target: T1, GABA A α5 (Homo sapiens, UniProt P18507+P31644)
# T1 construct: expressed in transfected cells; host or cells: HEK293 cells, transiently transfected; membranes prepared from cell pellets
# Assay: [3H]flumazenil competition binding, human GABA A α5β3γ2 receptors in HEK293 cell membranes
# Conditions: human receptor α5β3γ2 transiently transfected in HEK293; 0.5 nM [3H]flumazenil; 1 hour at 4° C.; means of two determinations; read-out: hKi GABA A α5
# Protocol: The affinity of compounds at GABA A receptor subtypes was measured by competition for [3H]flumazenil (85 Ci/mmol; Roche) binding to HEK293 cells expressing rat (stably transfected) or human (transiently transfected) receptors of composition α1β3γ2, α2β3γ2, α3β3γ2 and α5β3γ2.
# Cell pellets were suspended in Krebs-tris buffer (4.8 mM KCl, 1.2 mM CaCl2, 1.2 mM MgCl2, 120 mM NaCl, 15 mM Tris; pH 7.5; binding assay buffer), homogenized by polytron for ca. 20 sec on ice and centrifuged for 60 min at 4° C. (50000 g; Sorvall, rotor: SM24=20000 rpm). The cell pellets were re-suspended in Krebs-tris buffer and homogenized by polytron for ca. 15 sec on ice. Protein was measured (Bradford method, Bio-Rad) and aliquots of 1 mL were prepared and stored at −80° C.
# Assays were incubated to equilibrium for 1 hour at 4° C. and harvested onto GF/C uni-filters (Packard) by filtration using a Packard harvester and washing with ice-cold wash buffer (50 mM Tris; pH 7.5). After drying, filter-retained radioactivity was detected by liquid scintillation counting. Ki values were calculated using Excel-Fit (Microsoft) and are the means of two determinations.
row,Compound,Ki [nM]
1,5-{(E)-2-[3-(4-Fluoro-phenyl)-5-methyl-isoxazol-4-yl]vinyl}-2H-pyrazole-3-carboxylic acid (2-hydroxy-1-methyl-ethyl)-amide [Example 136],1
2,"Cc1onc(-c2ccccc2)c1COc1cc(C(=O)NC2CCOC2)[nH]n1 (racemic) [Example 4, Rac-5-(5-Methyl-3-phenyl-isoxazol-4-ylmethoxy)-2H-pyrazole-3-carboxylic acid (tetra-hydro-furan-3-yl)-amide]",6.6
3,"CCCCc1noc(C)c1COc1cc(C(=O)NC2CCOC(C)(C)C2)[nH]n1 (racemic) [Example 37, Rac-5-(3-Butyl-5-methyl-isoxazol-4-ylmethoxy)-2H-pyrazole-3-carboxylic acid (2,2-dimethyl-tetrahydro-pyran-4-yl)-amide]",22
4,"Cc1onc(-c2ccccc2)c1COc1cc(C(=O)NC2CCOC2)n(C)n1 (racemic) [Example 43, Rac-2-Methyl-5-(5-methyl-3-phenyl-isoxazol-4-ylmethoxy)-2H-pyrazole-3-carboxylic acid (tetrahydro-furan-3-yl)-amide]",9.7
5,"Cc1onc(-c2ccc(F)cn2)c1COc1cc(C(=O)NC2CCOC2)n(C)n1 (racemic) [Example 81, Rac-5-[3-(5-fluoro-pyridin-2-yl)-5-methyl-isoxazol-4-ylmethoxy]-2-methyl-2H-pyrazole-3-carboxylic acid (tetrahydro-furan-3-yl)-amide]",5.9
6,"CCCCc1noc(C)c1COc1cc(C(=O)NC(C)CO)n(C)n1 (racemic) [Example 87, Rac-5-(3-Butyl-5-methyl-isoxazol-4-ylmethoxy)-2-methyl-2H-pyrazole-3-carboxylic acid (2-hydroxy-1-methyl-ethyl)-amide]",44.7
7,"CCCCc1noc(C)c1COc1cc(C(=O)NC2CCOC2)n(C)n1 (racemic) [Example 89, Rac-5-(3-Butyl-5-methyl-isoxazol-4-ylmethoxy)-2-methyl-2H-pyrazole-3-carboxylic acid (tetrahydro-furan-3-yl)-amide]",20.3
8,"CCCCc1noc(C)c1COc1cc(C(=O)N[C@@H](C)CO)[nH]n1 (single isomer, unassigned) [Example 30]",25.2
9,"Cc1onc(-c2ccc(F)cc2)c1COc1cc(C(=O)N[C@@H](C)CO)n(C)n1 (single isomer, unassigned) [Example 75, (+)-5-[3-(4-Fluoro-phenyl)-5-methyl-isoxazol-4-ylmethoxy]-2-methyl-2H-pyrazole-3-carboxylic acid ((R)-2-hydroxy-1-methyl-ethyl)-amide or 5-[3-(4-fluoro-phenyl)-5-methyl-isoxazol-4-ylmethoxy]-2-methyl-2H-pyrazole-3-carboxylic acid ((S)-2-hydroxy-1-methyl-ethyl)-amide or enantiomer]",5.7
10,"Cc1onc(-c2ccc(F)cc2)c1COc1cc(C(=O)N[C@H](C)CO)n(C)n1 (single isomer, unassigned) [Example 76, (−)-5-[3-(4-Fluoro-phenyl)-5-methyl-isoxazol-4-ylmethoxy]-2-methyl-2H-pyrazole-3-carboxylic acid ((S)-2-hydroxy-1-methyl-ethyl)-amide or 5-[3-(4-fluoro-phenyl)-5-methyl-isoxazol-4-ylmethoxy]-2-methyl-2H-pyrazole-3-carboxylic acid ((R)-2-hydroxy-1-methyl-ethyl)-amide or enantiomer]",10.8
11,"CCCCc1noc(C)c1COc1cc(C(=O)NC2CCOC2)[nH]n1 (single isomer, unassigned; (+)) [Example 35, (+)-(R or S)-3-((3-Butyl-5-methylisoxazol-4-yl)methoxy)-N-(tetrahydrofuran-3-yl)-1H-pyrazole-5-carboxamide]",6
12,"CCC(CO)NC(=O)c1cc(OCc2c(-c3ccc(F)cc3)noc2C)nn1C (single isomer, unassigned; (+)) [Example 70, (+)-5-[3-(4-Fluoro-phenyl)-5-methyl-isoxazol-4-ylmethoxy]-2-methyl-2H-pyrazole-3-carboxylic acid ((S or R)-1-hydroxymethyl-propyl)-amide]",16.7
13,"CCCCc1noc(C)c1COc1cc(C(=O)NC2CCOC2)[nH]n1 (single isomer, unassigned; (-)) [Example 34, (−)-(S or R)-3-((3-Butyl-5-methylisoxazol-4-yl)methoxy)-N-(tetrahydrofuran-3-yl)-1H-pyrazole-5-carboxamide]",5.7
14,"Cc1onc(-c2ccccn2)c1COc1cc(C(=O)NC(C)CO)n(C)n1 (stereo in doubt) [Example 80, 2-Methyl-5-(5-methyl-3-pyridin-2-yl-isoxazol-4-ylmethoxy)-2H-pyrazole-3-carboxylic acid ((S)-2-hydroxy-1-methyl-ethyl)-amide]",23.5
15,"CC(NC(=O)c1cc(OCc2c(-c3ccc(Cl)cc3)noc2CO)nn1C)C(F)(F)F (stereo in doubt) [Example 106, 5-[3-(4-Chloro-phenyl)-5-hydroxymethyl-isoxazol-4-ylmethoxy]-2-methyl-2H-pyrazole-3-carboxylic acid ((S)-2,2,2-trifluoro-1-methyl-ethyl)-amide]",8.1
16,"Cc1onc(-c2ccccn2)c1COc1cc(C(=O)NC(C)CO)nn1C (stereo in doubt) [Example 114, 1-Methyl-5-(5-methyl-3-pyridin-2-yl-isoxazol-4-ylmethoxy)-1H-pyrazole-3-carboxylic acid ((S)-2-hydroxy-1-methyl-ethyl)-amide]",16.2

# Results, then the compound that gave them:
row,Ki [nM],Compound
1,1.2,"Cc1onc(-c2ccc(F)cn2)c1COc1cc(C(=O)NC2CCOC2)[nH]n1 (racemic) [Example 18, Rac-5-[3-(5-Fluoro-pyridin-2-yl)-5-methyl-isoxazol-4-ylmethoxy]-2H-pyrazole-3-carboxylic acid (tetrahydro-furan-3-yl)-amide]"
2,5.4,"CCCCc1noc(C)c1COc1cc(C(=O)NC2CCOC2)[nH]n1 (racemic) [Example 28, Rac-5-(3-Butyl-5-methyl-isoxazol-4-ylmethoxy)-2H-pyrazole-3-carboxylic acid (tetrahydrofuran-3-yl)-amide]"
3,1.8,"Cc1onc(-c2ccc(F)cc2)c1COc1cc(C(=O)NCC(O)C(F)(F)F)n(C)n1 (racemic) [Example 59, Rac-5-[3-(4-Fluoro-phenyl)-5-methyl-isoxazol-4-ylmethoxy]-2-methyl-2H-pyrazole-3-carboxylic acid (3,3,3-trifluoro-2-hydroxy-propyl)-amide]"
4,1.5,"Cc1onc(-c2ccc(F)cc2)c1COc1cc(C(=O)NC2CCOC2)n(C)n1 (racemic) [Example 72, Rac-5-[3-(4-Fluoro-phenyl)-5-methyl-isoxazol-4-ylmethoxy]-2-methyl-2H-pyrazole-3-carboxylic acid (tetrahydro-furan-3-yl)-amide]"
5,4.5,"Cn1nc(OCc2c(-c3ccc(F)cc3)noc2CO)cc1C(=O)NC1CCOC1 (racemic) [Example 97, Rac-5-[3-(4-fluoro-phenyl)-5-hydroxymethyl-isoxazol-4-ylmethoxy]-2-methyl-2H-pyrazole-3-carboxylic acid (tetrahydro-furan-3-yl)-amide]"
6,4.9,"Cn1nc(OCc2c(-c3ccc(F)cc3)noc2CO)cc1C(=O)NC1(C)COC1 (racemic) [Example 98, Rac-5-[3-(4-fluoro-phenyl)-5-hydroxymethyl-isoxazol-4-ylmethoxy]-2-methyl-2H-pyrazole-3-carboxylic acid (3-methyl-oxetan-3-yl)-amide]"
7,2.7,"Cn1nc(OCc2c(-c3ccc(Cl)cc3)noc2CO)cc1C(=O)NC1CCOC1 (racemic) [Example 110, Rac-5-[3-(4-Chloro-phenyl)-5-hydroxymethyl-isoxazol-4-ylmethoxy]-2-methyl-2H-pyrazole-3-carboxylic acid (tetrahydro-furan-3-yl)-amide]"
8,2.4,"Cc1onc(-c2ccc(F)cc2)c1COc1cc(C(=O)NCC(O)C(F)(F)F)n(C)n1 (single isomer, unassigned; (+)) [Example 67, (+)-5-[3-(4-Fluoro-phenyl)-5-methyl-isoxazol-4-ylmethoxy]-2-methyl-2H-pyrazole-3-carboxylic acid ((S or R)-3,3,3-trifluoro-2-hydroxy-propyl)-amide or enantiomer]"
9,2,"Cc1onc(-c2ccc(F)cc2)c1COc1cc(C(=O)N[C@@H]2CCCC2O)n(C)n1 (single isomer, unassigned; (+)) [Example 74]"
10,5.3,"Cc1onc(-c2ccc(F)cc2)c1COc1cc(C(=O)NCC(O)C(F)(F)F)n(C)n1 (single isomer, unassigned; (-)) [Example 68, (−)-5-[3-(4-Fluoro-phenyl)-5-methyl-isoxazol-4-ylmethoxy]-2-methyl-2H-pyrazole-3-carboxylic acid ((R or S)-3,3,3-trifluoro-2-hydroxy-propyl)-amide or enantiomer]"
11,3.5,"CCC(CO)NC(=O)c1cc(OCc2c(-c3ccc(F)cc3)noc2C)nn1C (single isomer, unassigned; (-)) [Example 69, (−)-5-[3-(4-Fluoro-phenyl)-5-methyl-isoxazol-4-ylmethoxy]-2-methyl-2H-pyrazole-3-carboxylic acid ((R or S)-1-hydroxymethyl-propyl)-amide]"
